# Assay results published in patent US20060204481A1, “Methods of promoting cell viability” (priority 2003, published 2006).
# Key:
# [1] = system: TH-positive neurons and total cells in ventral mesencephalic (VM) tissue cultures; experiment: Dopamine neuron survival in serum-free ventral mesencephalic tissue cultures (TH-positive and total cell counts); format: cell-based, rat
# Protocol: In order to examine the effects of TUDCA on apoptosis and the survival of dopamine neurons in VM tissue cultures under serum-free conditions and to determine an appropriate dosage of TUDCA, primary neuronal cultures were prepared from the VM tissue of SD rat embryos and incubated with or without the addition of TUDCA (Calbiochem, La Jolla, Calif., free base, dissolved in 0.15M (where “M” is molar concentration) NaHCO3 buffer). […] Therefore, TUDCA was added to a final concentration of 50 μM to the culture medium when the culture medium was switched to serum-free conditions after two days in vitro. Neural survival and apoptosis were determined by counting TH-positive cells and TUNEL-positive cells in the cultures two or seven days in vitro. A total of three separate series of cell culture experiments were performed.
# For each experimental series, pooled VM tissue from 24-32 embryos was incubated in 0.1% trypsin (Sigma, St. Louis, Mo.)/0.05% DNase (Sigma, St. Louis Mo.) at 37 degrees Celsius (° C.) for 20 minutes (min), and mechanically dissociated using a 1 milliliter (ml) Gilson pipette. Following dissociation, the cells were centrifuged at 600 rotation per minute (rpm) for 5 min and the pellet was resuspended in Dulbecco's Modified Eagle's Medium (DMEM) (Gibco, Carlsbad, Calif.). The cell number and viabilities of dissociated cells were assessed with a hemocytometer using trypan blue dye exclusion. The number of 100,000 cells/cm^2 (178,000 cells per well) were plated on to four-well chamber slides (Nunc, Rochester, N.Y.) precoated with […] poly-d-lysine (Sigma, St. Louis Mo.). The viabilities of dissociated cells were over 95%. Cell cultures were incubated for 2 days in DMEM supplemented with 10% fetal calf serum at 37° C. in a 95% air/5% CO^2 humidified atmosphere. After 2 days in vitro, the culture medium was switched to serum-free N2 medium, consisting of DMEM/Ham's F 12(1:1) mixture (Gibco, Carlsbad, Calif.).
# At this time point, some cultures were supplemented with TUDCA. […]
# pancreatic islet cells = experiment: Apoptosis (TUNEL) of pancreatic islet cells in vitro; format: cell-based; settings: 2 days in vitro
# Protocol: As another example, TUDCA was also effective in reducing apoptosis of pancreatic islet cells after 2 days in vitro. The number of TUNEL-positive cells was approximately 29 in non-treated controls, but only 12 in cells exposed to TUDCA. The more than 50% reduction by apoptosis by TUDCA was achieved after exposure of cells to TUDCA during the isolation procedure, followed by incubation with the bile acid during culture in vitro.
# [2] = system: TUNEL-positive cells in VM tissue cultures; experiment: TUNEL assay of apoptosis in VM tissue cultures; format: cell-based, rat; settings: 50 μM TUDCA, p<0.01
# Protocol: In order to examine the effects of TUDCA on apoptosis and the survival of dopamine neurons in VM tissue cultures under serum-free conditions and to determine an appropriate dosage of TUDCA, primary neuronal cultures were prepared from the VM tissue of SD rat embryos and incubated with or without the addition of TUDCA (Calbiochem, La Jolla, Calif., free base, dissolved in 0.15M (where “M” is molar concentration) NaHCO3 buffer). […] Therefore, TUDCA was added to a final concentration of 50 μM to the culture medium when the culture medium was switched to serum-free conditions after two days in vitro. Neural survival and apoptosis were determined by counting TH-positive cells and TUNEL-positive cells in the cultures two or seven days in vitro. […]
# For each experimental series, pooled VM tissue from 24-32 embryos was incubated in 0.1% trypsin (Sigma, St. Louis, Mo.)/0.05% DNase (Sigma, St. Louis Mo.) at 37 degrees Celsius (° C.) for 20 minutes (min), and mechanically dissociated using a 1 milliliter (ml) Gilson pipette. […] The cell number and viabilities of dissociated cells were assessed with a hemocytometer using trypan blue dye exclusion. […]
# For the cell culture experiments, the number of TUNEL-positive cells was assessed at ×400 magnification with the aid of a 400-μm square, reticule grid. […] Average number of TUNEL-positive cells was calculated and represented a value for single animals.
# striatal tissue cultures = settings: cited from earlier work
# 3-NP-lesioned rat = settings: systemic administration; cited from earlier work
# 6-OHDA lesioned rats = experiment: Amphetamine-induced rotation test after nigral grafting in unilateral 6-OHDA lesioned rats; format: in vivo, rat
# From the text: A total of 24 adult female Sprague-Dawley (SD) rats, weighing about 250 grams (g) at the beginning of the experiments were used as subjects of neural grafts. Among them, 12 rats were subjected to an extensive unilateral 6-hydroxydopamine (6-OHDA) lesion of the mesostriatal dopamine (DA) system and 12 rats were normal.
# The 6-OHDA lesioned rats and normal rats were randomly assigned to the TUDCA-treated (n=6 in each group) or the vehicle control (n=6 in each group) group, respectively. The rats were housed 2 per cage under a 12 hour day-night cycle with ad libitum access to food and water. They were maintained and treated in accordance with published National Institutes of Health guidelines.
# For the TUDCA-treated rats, a 50 μM concentration of TUDCA was added to the media when nigral tissue was trypsinized and dissociated. Two microliters of cell suspension containing TUDCA were then stereotaxically injected into the striatum of SD rats. For the control animals, the same amount of vehicle solution was added to the media. In the first series of transplantation experiment, normal rats that received neural transplants were sacrificed 4 days post-grafting and brain sections were prepared for the terminal deoxynucleotidyl transferase (TdT)-mediated dUTP-biotin nick end labeling (TUNEL) assay to determine apoptosis in the transplantation areas. In the second series of transplantation experiments, an amphetamine-induced rotation test was used to assess the completeness of the 6-OHDA lesions prior to grafting, and repeated two and six weeks after transplantation to monitor functional effects of the neural grafts. The rats were sacrificed after the last session of the rotational behavioral test and the brain tissue was processed for tyrosine hydroxylase (TH)-immunocytochemistry. Graft survival was assessed by counting the number of TH-positive neurons in the grafts.
# Two injections of 6-OHDA (hydrochloride salt, Sigma, St. Louis Mo.) were made into the right ascending mesostriatal DA pathway under equithesin anaesthesia (0.3 ml/100 g body wt. i.p.) as described previously (W.-M. Duan et al., Neuroscience 57:261-274; 1993). Briefly, a first injection of 2.5 microliter (μl) of 6-OHDA (3 microgram/microliter (μg/μl), free base, in 0.2 mg/ml ascorbate-saline) was performed at the following coordinates: 4.4 millimeter (mm) caudal to bregma; 1.2 mm lateral to midline; 7.8 mm ventral to the dural surface; with the tooth-bar set at 2.4 mm below the interaural line. A second injection of 2 μl of 6-OHDA was performed at the following coordinates; 4.0 millimeter (mm) caudal to bregma; 0.8 mm lateral to midline; 8.0 mm ventral to the dural surface; with the tooth-bar set at 3.4 mm above the interaural line. The 6-OHDA was infused at a rate of 1 μl/min, and the cannula was left in place for an additional 4 min before it was withdrawn.
# Two to three weeks after the lesion surgery, the rats were given 5 milligram per kilogram (mg/kg) of d-amphetamine sulphate (Sigma, St. Louis Mo.) in saline, i.p. and their rotational behavior was monitored in automated rotometer bowls for 90 min (U. Ungerstedt et al., Brain Res. 24: 485-493; 1970). […] The rotational test was then repeated at two different time-points as mentioned in the experimental design.
# A cell suspension technique was used to perform the neural transplants as previously described (A. Björklund et al., Acta. Physiol. Scand. Suppl. 522:9-18; 1983; P. Brundin et al., In: P. M. Conn, ed., Methods in Neurosciences, Lesions and Transplantation, Academic Press, San Diego, Vol 7, 1991:305-326). Briefly, VM tissue was obtained from embryos with a crown-to-rump length of 13-14 mm, corresponding to a gestational age of embryonic day 14. Dissection and preparation of the donor tissue were carried out under aseptic conditions in Hank's balanced salt solution (HBSS) (Gibco, Carlsbad, Calif.). […]
# [3] = system: TH-immunoreactive neurons in intrastriatal nigral grafts; experiment: Graft survival: TH-immunocytochemistry and graft volume 6 weeks after transplantation; format: in vivo, rat
# [4] = system: TUNEL-positive cells in the grafted areas; experiment: TUNEL assay of apoptosis in graft areas 4 days post-transplantation; format: in vivo, rat; settings: normal rats, p<0.01
# Protocol: For the TUDCA-treated rats, a 50 μM concentration of TUDCA was added to the media when nigral tissue was trypsinized and dissociated. Two microliters of cell suspension containing TUDCA were then stereotaxically injected into the striatum of SD rats. For the control animals, the same amount of vehicle solution was added to the media. In the first series of transplantation experiment, normal rats that received neural transplants were sacrificed 4 days post-grafting and brain sections were prepared for the terminal deoxynucleotidyl transferase (TdT)-mediated dUTP-biotin nick end labeling (TUNEL) assay to determine apoptosis in the transplantation areas. […] Graft survival was assessed by counting the number of TH-positive neurons in the grafts.
# A cell suspension technique was used to perform the neural transplants as previously described (A. Björklund et al., Acta. Physiol. Scand. Suppl. 522:9-18; 1983; P. Brundin et al., In: P. M. Conn, ed., Methods in Neurosciences, Lesions and Transplantation, Academic Press, San Diego, Vol 7, 1991:305-326). […] Before and after transplantation, the viabilities of the cell suspensions were assessed by the trypan blue dye exclusion method. […]
smiles,measurement,setting,value
"C[C@H](CCC(=O)NCCS(=O)(=O)O)[C@H]1CC[C@H]2[C@@H]3[C@@H](O)C[C@@H]4C[C@H](O)CC[C@]4(C)[C@H]3CC[C@]12C [TUDCA, tauroursodeoxycholic acid]","number of TH-positive cells, TUDCA-treated cultures compared with 2DIV cultures","[1]; 50 μM TUDCA added at switch to serum-free medium after 2 days in vitro, counted at 7 DIV, p>0.05",No difference
same,cell loss of TH-positive neurons and total cells,"[1]; 7DIV TUDCA-treated cultures, serum-free, 7 DIV control had only 30% of 2 DIV TH-positive neurons",not observed
same,dose dependence of neural protective effect,"[1]; VM tissue cultures, serum-free",dose-dependent manner
same,number of TUNEL-positive cells,"pancreatic islet cells; TUDCA during isolation and culture, non-treated controls approximately 29",12
same,reduction of apoptosis,pancreatic islet cells; versus non-treated controls,more than 50%
same,"number of TUNEL-positive cells, 7 DIV control versus 7 DIV TUDCA-treated cultures",[2],significantly higher in 7 DIV control cultures
same,3-nitropropionic acid (3-NP)-mediated neuronal cell death,striatal tissue cultures,significantly reduces
same,neurological deficits,3-NP-lesioned rat,ameliorate neurological deficits
same,striatal degeneration,3-NP-lesioned rat,reduce striatal degeneration
same,mean net rotation values compared to pregrafting values,"6-OHDA lesioned rats; 2 weeks after grafting, p<0.01, not in control group",significantly reduced
same,rats exhibiting at least 50% reduction in net motor asymmetry compared to pre-transplantation values,"6-OHDA lesioned rats; 2 weeks after transplantation, cell suspension pre-treated with 50 μM TUDCA, none of the control animals",4 of 6
same,net asymmetry values compared to control group,"6-OHDA lesioned rats; 2 weeks after transplantation, p<0.05",lower net asymmetry values than the control group
same,motor asymmetry scores compared to pregrafting,"6-OHDA lesioned rats; 6 weeks after surgery, p<0.05, both groups",significantly reduced motor asymmetry scores
same,difference in motor asymmetry scores between TUDCA-treated and control groups,"6-OHDA lesioned rats; 6 weeks after surgery, p>0.05",not longer any difference
same,reduction in motor asymmetry scores,"6-OHDA lesioned rats; 6 weeks following transplantation, all rats of both control and TUDCA-treated groups",> 50%
same,areas of the host striatum reinnervated by the grafts compared to control group,[3],larger
same,graft volume compared to control group,[3]; p<0.05,significantly larger
same,number of apoptotic (TUNEL-positive) cells in the grafted areas compared to control group,[4],significantly smaller
